Experimental data as given in patent US11427588B2, “Compositions and methods for treating neurodegenerative diseases and cardiomyopathy” (THE REGENTS OF THE UNIVERSITY OF CALIFORNIA, priority 2013, dated 2022).
Several values for one entry are separate records, joined by “and”; a condition that tells them apart may be missing. Equal values may be shown once. Entries after “also recorded” stand apart in the source; their conditions may differ.

Columns and labels:
[1] = system: PINK1^G309D mutant expressing cells; assay: Parkin S65 phosphorylation after CCCP, phospho specific antibodies after immuno-precipitating Parkin; format: cell-based; conditions: S65 phosphosite
Experimental: (§1) Parkin phosphorylation and mitochondrial translocation assay: HeLa cells were grown in DMEM supplemented with 10% FBS. Log phase cells were plated in 24 well plates with glass coverslips (Mattek) pretreated with fibronectin. Cells were pretreated with 50 μM of the indicated compound, followed by transfection with MitoGFP, mCherry Parkin, and full length PINK1FLAG3 in a 1:4:2 ratio using Fugene 6 (Promega). Fields of cells were selected by expression of MitoGFP (6 fields/well-3 wells/condition) and imaged at five-minute intervals following depolarization with 5 μM CCCP. Quantification was performed according to published protocols^3 and by creation of a Matlab based script.
To test the PINK1-dependency of our findings, we assayed PINK1 activity by using phospho specific antibodies raised against Parkin's PINK1-specific S65 phosphosite^21 after immuno-precipitating Parkin. […] To test whether kinetin stimulated Parkin localization was due to reversible binding of kinetin to PINK1, we treated the cells with fresh medium for 96 hours before performing a new recruitment assay. Similar recruitment rates were observed following the washout (FIG. 2F). […] We followed previously published methods to calculate the percentage of GFP labeled mitochondria with mCherryParkin associated. […]

PINK1−/− mice = assay: Heart health and performance in mice treated from birth; format: in vivo
Experimental: PINK1 expression is protective in several mouse models of heart failure. PINK1wt expression will block pathological hypertrophy, increase heart fractional shortening, and prevent ischemia induced death of heart tissue. To assay the effect of kinetin PINK1 wt or PINK1−/− mice were treated with vehicle, adenine or kinetin from birth following published protocols for administration of kinetin (Hims et al., 2007; Shetty et al., 2011). The mice were sacrificed and whole hearts analyzed, and isolated cardiomyocytes from mice at appropriate time periods (e.g. 2 and 6 months). O2 consumption, mitochondrial integrity (mtDNA abundance, mitochondrial capacity and JC-1 fluorescence) caspase 3/7 cleavage activity and TUNEL staining were measured to assess the health of these tissues. According to published results (Billia et al., 2011; Chen and Dorn, 2013), PINK1 activity is essential for normal 02 consumption and maintenance of mitochondrial integrity. Decreased 02 consumption and mitochondrial integrity in PINK1−/− mice was compared to PINK1wt mice. […] Additionally, caspase 3/7 cleavage activity and TUNEL staining of the left ventricle were increased in PINK1−/− mice derived cardiomyocytes compared to PINK1wt.
In addition to these analyses we analyzed the performance of the heart in whole animals. We utilized the same procedure as above and treated either PINK1wt or PINK1−/− mice with vehicle, adenine or kinetin from birth following published protocols for administration of kinetin (Hims et al., 2007; Shetty et al., 2011). […] These characteristics of pathological hypertrophy indicate heart failure in the PINK1−/− mice will not increase as dramatically in PINK1wt mice (Billia et al., 2011). […] These experiments indicate that amplification of PINK1 activity by treatment with kinetin can block age-induced loss in heart function.

PINK1^wt = PINK1^wt (Homo sapiens, UniProt Q9BXM7); assay: Parkin mitochondrial translocation assay in HeLa cells after CCCP depolarization; format: cell-based; design: transfection with MitoGFP, mCherry Parkin, and full length PINK1FLAG3 in a 1:4:2 ratio; expressed in transfected cells; host or cells: HeLa; conditions: for 50% Recruitment Times (R50) mCherry Parkin to depolarized mitochondria: HeLa cells with PINK1^wt, mCherryParkin, mitoGFP, 48 hours, 25 μM; for mean change in co-localization: PINK1^wt expressing cells, algorithm quantified
Experimental: as §1
(§2) Our ability to enhance PINK1 activity in-vitro using KTP led us to investigate means by which to achieve enhanced activity in cells expressing PINK1. […] We treated cells with either kinetin or adenine (FIG. 2A) and measured Parkin localization following mitochondrial depolarization with CCCP (FIG. 2B). HeLa cells, which have low levels of endogenous PINK1 and PARKIN, were transfected with wildtype or PINK1^G309D, mCherryParkin, and mitoGFP. After 48 hours of incubation with 25 μM adenine, kinetin or equivalent DMSO, we imaged CCCP-mediated depolarization of mitochondria (FIGS. 2C, 2D) and calculated the percentage of GFP labelled mitochondria with mCherryParkin associated (FIG. 2E). In line with previous reports^3, transfection of PINK1^G309D slowed the 50% recruitment (R50) time of mCherryParkin to depolarized mitochondria (23±2 min vs 15±1 min R50) (FIGS. 2C-2E Table.2). […] Using an algorithm to accurately quantify the time dependent change in co-localization, we calculated that PINK1^wt expressing cells achieved a mean change in co-localization of 0.112 with DMSO or adenine and 0.13 with kinetin treatment (FIGS. 7A-7F); PINK1^G309D expressing cells treated with DMSO or adenine achieved delta co-localization of 0.076, but upon addition of kinetin returned to near-PINK1-wildtype levels (0.124).
(§3) To test the PINK1-dependency of our findings, we assayed PINK1 activity by using phospho specific antibodies raised against Parkin's PINK1-specific S65 phosphosite^21 after immuno-precipitating Parkin. […] To test whether kinetin stimulated Parkin localization was due to reversible binding of kinetin to PINK1, we treated the cells with fresh medium for 96 hours before performing a new recruitment assay. Similar recruitment rates were observed following the washout (FIG. 2F). […] We followed previously published methods to calculate the percentage of GFP labeled mitochondria with mCherryParkin associated. Transfection of G309DPINK11-581 slowed the rate of mCherryParkin recruitment (23+2 min vs 15+1 min R50) as per reported results. The addition of kinetin, but not adenine, increased the rate of mCherryParkin recruitment in wt cells from 15+1 to 10+2 min and G309D cells from 23+2 to 15+2 min. We then incubated the cells with kinetin for 2 days, washed the cells with fresh medium then performed the recruitment assay and saw the same increase in the rate of recruitment. […] We developed an algorithm to calculate the change in co-localization. The wtPINK1 cells achieved a mean change in co-localization of 0.11 with DMSO, adenine or kinetin treatment. G309DPINK1 expressing cells treated with DMSO or Adenine, achieved delta co-localization of 0.075 but upon addition of kinetin indicating rescue to the wt level (0.11) (P>0.05).

PINK1^G309D = PINK1^G309D (Homo sapiens, UniProt Q9BXM7, G309D); assay: as above; format: cell-based; design: transfection with MitoGFP, mCherry Parkin, and full length PINK1FLAG3 in a 1:4:2 ratio; expressed in transfected cells; host or cells: HeLa; conditions: for 50% Recruitment Times (R50) mCherry Parkin to depolarized mitochondria: HeLa cells with PINK1^G309D, mCherryParkin, mitoGFP, 48 hours, 25 μM; for delta co-localization: PINK1^G309D expressing cells, algorithm quantified
Experimental: as §1, §2, §3

Sequence of PINK1^G309D (Q9BXM7 78-581 G309D): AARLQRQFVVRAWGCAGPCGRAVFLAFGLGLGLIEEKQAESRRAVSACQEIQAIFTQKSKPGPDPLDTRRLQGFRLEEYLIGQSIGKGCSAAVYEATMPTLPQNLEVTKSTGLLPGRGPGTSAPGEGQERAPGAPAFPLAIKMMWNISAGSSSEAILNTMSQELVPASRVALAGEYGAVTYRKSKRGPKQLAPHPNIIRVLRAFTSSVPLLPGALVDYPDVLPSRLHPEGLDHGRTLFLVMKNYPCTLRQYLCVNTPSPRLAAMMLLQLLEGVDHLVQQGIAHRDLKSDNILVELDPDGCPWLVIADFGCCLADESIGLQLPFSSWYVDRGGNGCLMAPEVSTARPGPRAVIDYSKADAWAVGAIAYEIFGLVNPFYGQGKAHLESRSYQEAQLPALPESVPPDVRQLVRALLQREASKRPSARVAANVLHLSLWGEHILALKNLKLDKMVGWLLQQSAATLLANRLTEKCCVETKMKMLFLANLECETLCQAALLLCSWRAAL
Sequence of PINK1^wt (Q9BXM7 78-581): as the sequence (Q9BXM7 78-581 G309D) above, with D232G counted along it

Nc1ncnc2nc[nH]c12 [adenine, reference compound]
phosphorylation levels of Parkin [1]: not
age induced pathological hypertrophy (PINK1−/− mice): no effect
50% Recruitment Times (R50) mCherry Parkin to depolarized mitochondria (PINK1^wt): 15 ± 1 min
mean change in co-localization (PINK1^wt): 0.112 and 0.11
50% Recruitment Times (R50) mCherry Parkin to depolarized mitochondria (PINK1^G309D): 23 ± 2 min
delta co-localization (PINK1^G309D): 0.076
delta co-localization (PINK1^G309D; listed as Adenine): 0.075

c1coc(CNc2ncnc3[nH]cnc23)c1 [kinetin]
phosphorylation levels of Parkin [1]: significantly increased; also recorded: Robust increase
age induced pathological hypertrophy (PINK1−/− mice): no effect
50% Recruitment Times (R50) mCherry Parkin to depolarized mitochondria (PINK1^wt): 10±2 min and 10+2 min
mean change in co-localization (PINK1^wt): 0.13 and 0.11
50% Recruitment Times (R50) mCherry Parkin to depolarized mitochondria (PINK1^G309D): 15±2 min and 15+2 min
delta co-localization (PINK1^G309D): 0.124 and 0.11
